Tests used:
Septoria tritici = assay: Comparative Example 1: activity against leaf blotch on wheat caused by Septoria tritici (microtiter plate); format: cell-based; details: 7 days after inoculation
Leptosphaeria nodorum = assay: Comparative Example 2: activity against wheat leaf spots caused by Leptosphaeria nodorum (microtiter plate); format: cell-based; details: 7 days after inoculation
Ustilago maydis = assay: Example 12: activity against Ustilago maydis in the microtiterplate test; details: 31 ppm, DOB media pH 7
Description: The stock solutions were mixed according to the ratio, pipetted onto a micro titer plate (MTP) and diluted with water to the stated concentrations. A spore suspension of the Ustilago maydis isolates in a DOB media (ph 7) was then added.

Botrytis cinerea = assay: Example 1: activity against the grey mold Botrytis cinerea in the microtiterplate test; format: cell-based; details: 31 ppm, 7 days after inoculation, relative to active compound-free control (100%)
Fusarium culmorum = assay: Example 2: activity against Fusarium culmorum in the microtiterplate test; details: 31 ppm, 7 days after inoculation, relative to active compound-free control (100%)
Description: The stock solutions were mixed according to the ratio, pipetted onto a micro titer plate (MTP) and diluted with water to the stated concentrations. A spore suspension of Fusarium culmorum in an aqueous biomalt or yeast-bactopeptone-glycerine or DOB solution was then added. The plates were placed in a water vapor-saturated chamber at a temperature of 18° C. Using an absorption photometer, the MTPs were measured at 405 nm 7 days after the inoculation.

Row | SMILES | Growth (%) at 125 pm SEPTTR (Septoria tritici) [%] | Growth (%) at 8 pm LEPTNO (Leptosphaeria nodorum) [%] | growth of the pathogen (Ustilago maydis) [%] | growth of the pathogen (Botrytis cinerea) [%] | growth of the pathogen (Fusarium culmorum) [%]
1 | Cc1cc(C2=NCCOc3ccccc32)cnc1C [D1, reference compound] | 98 | 45 | – | – | –
2 | Cc1cc(C2=NC(C(C)(C)C)COc3ccccc32)cnc1C (stereo not drawn) [Ex-1] | – | – | 0 | 0 | –
3 | Cc1cc(C2=NCC(C)(C)Oc3ccccc32)cnc1C [Ex-2] | 51 | 4 | – | 0 | 1
4 | Cc1cc(C2=NC(C)(C)C(C)(C)Oc3ccccc32)cnc1C [Ex-3] | 64 | 30 | – | 0 | 1
5 | Cc1cc(C2=NC(C)(C)C(C)(C)Oc3ccccc32)cnc1C(F)F [Ex-4] | – | – | – | 0 | –
6 | Cc1cc(C2=NCC(C)(C)Oc3ccccc32)cnc1C(F)F [Ex-8] | – | – | – | 0 | –
7 | COCC1(C)Oc2ccccc2C(c2cnc(C)c(C)c2)=NC1(C)C (stereo not drawn) [Ex-9] | – | – | – | 0 | –
8 | COCC1(C)Oc2ccccc2C(c2cnc(C(F)F)c(C)c2)=NC1(C)C (stereo not drawn) [Ex-10] | – | – | – | 0 | –
9 | Cc1cc(C2=NC(C)C(C)(C)Oc3ccccc32)cnc1C (stereo not drawn) [Ex-11] | 52 | 6 | – | 0 | –
10 | Cc1cc(C2=NC(C(C)(C)C)C(C)Oc3ccccc32)cnc1C (stereo not drawn) [Ex-24] | – | – | 0 | – | –
11 | Cc1cc(C2=NC(=O)C3(CC3)Oc3c(F)cccc32)cnc1C(F)F [Ex-41] | – | – | 0 | – | –

— patent US20240270727A1, “NEW SUBSTITUTED PYRIDINES AS FUNGICIDE” (BASF SE, priority 2021, published 2024)
